“Also recorded” adds a separate entry of the source. Where two headings read alike, the source gives them in different places.
Assays:
Assay type in all cases: cell-based, Human
HepG2 cells = experiment: MTT cell viability assay, HepG2; conditions: for IC50: HepG2
Procedure: (§1) The viability of cancer cells was evaluated by MTT assay. Briefly, cells were inoculated in 96-well culture plates at the density of 1×10^4/well with complete medium containing 10% fetal calf serum in a final volume of 0.2 mL. Cells were incubated at 37°C for at least 24 hours to allow optimal attachment. When the cells reached 60% confluence, they were treated with Cisplatin, HCPT and emodin rhamnopyranosides derivatives in various concentrations, and incubated in a humidity-controlled 5%CO2 incubator at 37°C for 72 hours. Medium were exchanged once every 24 hours. Cell control group and blank group were set up in the same manner, with each group having six parallel wells. Cell survival was assessed by directly adding 22 μL of 5mg/mL MTT to 0.2 mL medium. After three hours, the formazan precipitate was dissolved in 200μL isopropanol per well, and completely mixed under room temperature. Afterwards, the optical density of each well was detected at 570 nm wavelength by iMark microplate reader (Bio-rad,USA). This experiment was repeated at least three times.

[1] = tested on: Cyto C gene expression of HepG2 cells; experiment: RT-qPCR gene expression, Cytochrome C; conditions: 48 hours, control 1.030±0.280
Procedure: HepG2 cells were inoculated in 6-well culture plates at a density of 3×10^5 cells/well, and allowed to attach at 37°C for 24 hours. Then cells were treated with specific concentrations of EM-d-Rha and incubated in a humidified incubator supplied with 5% CO2 at 37°C for 48 hours. Medium were changed once every 24 hours. Afterwards, mRNA was extracted from every group using E.Z.N.A.^TM Total RNA Kit II according to the manufacturer’s instructions. The extracted mRNA was dissolved in 20 μL ddH2O (Qiagen) containing diethyl pyrocarbonate (DEPC). The concentration of mRNA was quantified with a NanoDrop ND-100 device (Thermo Fisher Scientific). cDNA was synthesized using 3μg of the extracted mRNA from each sample with PCR system (BIO-RAD,USA). The cDNA synthesis reaction was prepared according to the manufacturer’s instructions by mixing 3μg mRNA, 4.0μL 5× MMLV buffer, 3 μL oligodT18, 0.5μL 10 mM dNTP solution, 0.8μL RNase inhibitor, 3.7μL MMLV Rtase, and 6.0μL DEPC ddH2O in PCR tubes. The reaction condition was 5min at 70°C, 60 min at 42°C and 10min at 4°C. The products were used for subsequent RT-qPCR analysis. The level of mRNA expression was measured by RT-qPCR using a CFX96^TM C1000 Real-Time PCR System (BIO-RAD, USA).The primers were designed using idt.dna software system (http //www.idtdna.com). The specific primers were: Cyto C: 5′-[…]-3′ (forward), 5′- […] -3′ (reverse); Caspase 3: 5′- CCTACAGCCCATTTC TCCATAC-3′ (forward), 5′-[…]-′ (reverse); β-actin: 5′-[…]-3′ (forward), 5′-[…]-3′ (reverse). The product sizes of Cyto C, Caspase 3 and β-actin were 91bp, 125bp and 107bp, respectively. The PCR reaction was performed in a final volume of 20μL using an optical 96-well tray. The reaction mixture consisted of 10μL of SYBR I green Mix/ GoTaq®qPCR
Master Mix (Promega), 0.3μL of each primer (10μM), and 1.0 μL cDNA template. PCR cycling condition was one cycle of 5min at 95°C, 39 cycles and each of which was consisted of 15 seconds at 95°C, 15 seconds at 62°C and 30 seconds at 72°C, with final extension at 60°C for 5 Seconds. The thermal melt parameter was investigated to assess the homogeneity of PCR. Each sample was analyzed in quadruplicate and mean was used for further analysis. The mRNA expression levels of each sample were quantified by measuring the threshold cycle (CT) values of genes. The relative values of the target gene expression were calculated according to CT values of the target genes and the reference gene (β-actin) by applying Livak and Schmittgen method. That is, it equals to 2^-Δ ΔCT, ΔCT equals the mean of Ct for target gene minus the mean of Ct for β-actin gene, and ΔΔCT equals ΔCT of the treated group minus ΔCT of the control group.

HeLa cells = experiment: MTT cell viability assay, HeLa
Procedure: as §1

[2] = tested on: Cyto C, caspase-3 and caspase-9 proteins in HepG2 cells; experiment: Western blot analysis of apoptotic proteins; conditions: HepG2, compared to control group
Procedure: HepG2 cells were inoculated, cultured and harvested as described previously. Afterwards, the experiment was performed on ice. The harvested cell pellet was washed with cold PBS before being resuspended in 300μL cytosol lysis buffer through vortex. Then cells of all samples were lysed by sonication method on the ice using the ultrasonic cell disruptor (100 W for 30s×4 times). Total protein of each sample was measured by Bradford assay using protein quantification reagents from Bio-Rad. All samples were added 2×loading buffer before analyzing on 12% gels by SDS-PAGE. Then the proteins were transferred to nitrocellulose membranes by electro-blotting. The membranes were blocked in 1% bovine serum albumin (BSA) or 5% milk solution at room temperature for 30min, followed by incubation with the primary antibody against rabbit (Univ-bio, China) at 4°C overnight. The membranes were then washed three times with 1×TBST, each time last for 5 mins. The membranes were then incubated with the secondary antibodies for 3 h at 4°C, followed by washing with 1×TBST as described previously. Finally, the immuno-reactive bands were detected and documented using an enhanced chemiluminescent Western blotting system (Thermo-scientific, USA) on a Versa Doc imaging system.

SMILES: CC(=O)O[C@@H]1[C@@H](O[C@@H]2O[C@@H](C)[C@H](O)[C@@H](OC(C)=O)[C@H]2OC(C)=O)[C@H](C)O[C@@H](Oc2cc(O)c3c(c2)C(=O)c2cc(C)cc(O)c2C3=O)[C@@H]1OC(C)=O [S-8, 3-(2”,3”-Di-O-acetyl-α-L-rhamnopyranosyl-(1→4)-2’,3’-di-O-acetyl-α-L-rhamnopyranosyl)-emodin]
- Activity against HepG2 cells relative to comparators (dose-response curves) (HepG2 cells; HepG2 treated for three day, Fig 3, listed as EM-d-Rha): stronger in comparison to that of emodin; also recorded: inferior as compared to that of Cisplatin and HCPT
- IC50 (HepG2 cells; Homo sapiens, MTT at 72h, n=3, mean±S.E.M, read-out: IC50 for EM-d-Rha, HepG2): 1810 ± 440 nM
- IC50 (HepG2 cells; Homo sapiens, MTT, 72 hours, read-out: IC50 values, HepG2): 0.65 µg/mL
- inhibition at 0.1 µM (HepG2 cells; Homo sapiens, HepG2, 0.1μM, MTT 72h, read-out: The inhibition rate of EM-d-Rha): 4.6 ± 5.04%
- inhibition at 0.5 µM (HepG2 cells; Homo sapiens, HepG2, 0.5μM, MTT 72h, read-out: The inhibition rate of EM-d-Rha): 24.3 ± 6.54%
- inhibition at 2.5 µM (HepG2 cells; Homo sapiens, HepG2, 2.5μM, MTT 72h, read-out: The inhibition rate of EM-d-Rha): 70.7 ± 3.54%
- inhibition at 12.5 µM (HepG2 cells; Homo sapiens, HepG2, 12.5μM, MTT 72h, read-out: The inhibition rate of EM-d-Rha): 90.97 ± 0.72%
- inhibition at 62.5 µM (HepG2 cells; Homo sapiens, HepG2, 62.5μM, MTT 72h, read-out: The inhibition rate of EM-d-Rha): 91.46 ± 0.46%
- Decrease of IC50 compared to the IC50 of emodin, HepG2 (HepG2 cells; from Table 1): 19.68 fold
- Cytochrome C mRNA expression level relative to controls ([1]; HepG2, 0.70μM): 1.009±0.475 fold
- Cytochrome C mRNA expression level relative to controls ([1]; HepG2, 1.40μM): 1.086±0.727 fold
- Cytochrome C mRNA expression level relative to controls ([1]; HepG2, 2.80μM, listed as EM-d-Rha): 3.258±2.402 fold
- Cytochrome C mRNA expression level relative to controls ([1]; HepG2, 5.60μM): 5.625±4.950 fold
- IC50 (HeLa cells; Homo sapiens, HeLa, MTT at 72h, n=3, mean±S.E.M, read-out: IC50 for EM-d-Rha, HeLa): 1510 ± 310 nM
- IC50 (HeLa cells; Homo sapiens, HeLa, MTT, 72 hours, read-out: IC50 values, HeLa): 1.15 µg/mL
- inhibition at 0.1 µM (HeLa cells; Homo sapiens, HeLa, 0.1μM, MTT 72h, read-out: The inhibition rate of EM-d-Rha): 14.8 ± 5.61%
- inhibition at 0.5 µM (HeLa cells; Homo sapiens, HeLa, 0.5μM, MTT 72h, read-out: The inhibition rate of EM-d-Rha): 37.6 ± 2.81%
- inhibition at 2.5 µM (HeLa cells; Homo sapiens, HeLa, 2.5μM, MTT 72h, read-out: The inhibition rate of EM-d-Rha): 49.2 ± 3.78%
- inhibition at 12.5 µM (HeLa cells; Homo sapiens, HeLa, 12.5μM, MTT 72h, read-out: The inhibition rate of EM-d-Rha): 69.1 ± 3.36%
- inhibition at 62.5 µM (HeLa cells; Homo sapiens, HeLa, 62.5μM, MTT 72h, read-out: The inhibition rate of EM-d-Rha): 89.74 ± 0.63%
- Decrease of IC50 compared to the IC50 of emodin, HeLa (HeLa cells; from Table 1): 10.56 fold
- Expression levels of Cyto C, caspase-3 and caspase-9 proteins (western-blot) [2]: three proteins expression increased at a concentration-dependent manner
